Literature values, collected in US20250375417A1, “OREXIN RECEPTOR 2 (OX2R) AGONIST FOR USE IN NARCOLEPSY TYPE 1 (NT1)” (TAKEDA PHARMACEUTICAL COMPANY LIMITED, priority 2024, published 2025).

Details: phase 2 clinical studies of firazorexton; cited from earlier work

Structure (SMILES): CC(C)(O)C(=O)N1CC[C@H](NS(C)(=O)=O)[C@@H]1Cc1cccc(-c2cc(F)cc(F)c2)c1F [firazorexton]
- Liver toxicity: liver toxicity was observed
